# ± gives the standard deviation of the averaged measurements.
# Assays:
# Experiment in all cases: pIC50, kinobeads binding competition
# Details in all cases: cell material: Jurkat lysate
# CIT = CIT (UniProt O14578)
# UniProt Q9H0K1 = target: UniProt Q9H0K1
# UniProt Q15208 = target: UniProt Q15208
# CDK10 = CDK10 (UniProt Q15131)
# NLK = target: T1, NLK (UniProt Q9UBE8)
# T1 sequence (whole entry): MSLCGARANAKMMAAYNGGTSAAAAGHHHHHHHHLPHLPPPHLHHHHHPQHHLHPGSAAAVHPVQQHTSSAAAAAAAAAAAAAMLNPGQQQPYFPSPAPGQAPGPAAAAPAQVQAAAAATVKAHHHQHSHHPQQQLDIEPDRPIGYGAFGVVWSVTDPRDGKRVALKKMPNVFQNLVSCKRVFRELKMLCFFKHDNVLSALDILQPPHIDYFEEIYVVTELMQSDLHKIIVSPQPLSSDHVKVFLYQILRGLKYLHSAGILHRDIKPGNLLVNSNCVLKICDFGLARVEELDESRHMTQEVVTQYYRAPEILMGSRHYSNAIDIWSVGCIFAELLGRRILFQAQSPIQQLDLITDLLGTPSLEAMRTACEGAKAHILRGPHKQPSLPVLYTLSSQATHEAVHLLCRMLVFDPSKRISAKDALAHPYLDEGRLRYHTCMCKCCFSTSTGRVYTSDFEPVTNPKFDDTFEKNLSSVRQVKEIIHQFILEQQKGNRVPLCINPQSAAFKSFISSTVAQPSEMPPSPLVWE
# TESK1 = TESK1 (UniProt Q15569)
# UniProt Q9UEE5 = target: T2, UniProt Q9UEE5
# T2 sequence (whole entry): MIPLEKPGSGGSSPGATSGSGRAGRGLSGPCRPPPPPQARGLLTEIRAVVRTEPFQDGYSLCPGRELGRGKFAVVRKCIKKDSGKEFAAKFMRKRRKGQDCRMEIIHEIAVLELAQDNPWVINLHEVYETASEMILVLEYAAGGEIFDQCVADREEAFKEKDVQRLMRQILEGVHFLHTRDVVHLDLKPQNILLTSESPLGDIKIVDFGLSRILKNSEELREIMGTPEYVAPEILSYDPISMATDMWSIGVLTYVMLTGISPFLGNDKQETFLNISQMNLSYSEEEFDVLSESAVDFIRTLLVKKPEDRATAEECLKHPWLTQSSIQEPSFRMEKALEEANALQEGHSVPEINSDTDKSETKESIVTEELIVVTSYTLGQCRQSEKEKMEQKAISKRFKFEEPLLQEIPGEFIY
# RPS6KA4 = RPS6KA4 (UniProt O75676)
# UniProt O94804 = target: UniProt O94804
# STK35 = STK35 (UniProt Q8TDR2)
# UniProt Q92918 = target: UniProt Q92918
# HIPK3 = HIPK3 (UniProt Q9H422)
# ROCK2 = ROCK2 (UniProt O75116)
# TRRAP = TRRAP (UniProt Q9Y4A5)
# MAPK11 = MAPK11 (UniProt Q15759)
# CAMK4 = target: T3, CAMK4 (UniProt Q16566)
# T3 sequence (whole entry): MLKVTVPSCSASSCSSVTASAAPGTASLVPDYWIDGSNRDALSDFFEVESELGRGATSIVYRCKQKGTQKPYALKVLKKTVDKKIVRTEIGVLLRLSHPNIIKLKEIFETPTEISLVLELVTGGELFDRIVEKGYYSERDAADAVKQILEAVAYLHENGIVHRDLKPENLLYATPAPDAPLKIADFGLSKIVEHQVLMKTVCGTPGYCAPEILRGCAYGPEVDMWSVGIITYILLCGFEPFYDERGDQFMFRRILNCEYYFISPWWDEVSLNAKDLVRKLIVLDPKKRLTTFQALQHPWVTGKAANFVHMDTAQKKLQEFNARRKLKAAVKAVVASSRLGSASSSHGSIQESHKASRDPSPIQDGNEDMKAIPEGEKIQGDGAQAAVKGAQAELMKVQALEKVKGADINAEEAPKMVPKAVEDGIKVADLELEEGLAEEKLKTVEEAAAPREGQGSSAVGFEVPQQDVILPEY
# PLK1 = PLK1 (UniProt P53350)
# ITK = target: T4, ITK (UniProt Q08881)
# T4 sequence (whole entry): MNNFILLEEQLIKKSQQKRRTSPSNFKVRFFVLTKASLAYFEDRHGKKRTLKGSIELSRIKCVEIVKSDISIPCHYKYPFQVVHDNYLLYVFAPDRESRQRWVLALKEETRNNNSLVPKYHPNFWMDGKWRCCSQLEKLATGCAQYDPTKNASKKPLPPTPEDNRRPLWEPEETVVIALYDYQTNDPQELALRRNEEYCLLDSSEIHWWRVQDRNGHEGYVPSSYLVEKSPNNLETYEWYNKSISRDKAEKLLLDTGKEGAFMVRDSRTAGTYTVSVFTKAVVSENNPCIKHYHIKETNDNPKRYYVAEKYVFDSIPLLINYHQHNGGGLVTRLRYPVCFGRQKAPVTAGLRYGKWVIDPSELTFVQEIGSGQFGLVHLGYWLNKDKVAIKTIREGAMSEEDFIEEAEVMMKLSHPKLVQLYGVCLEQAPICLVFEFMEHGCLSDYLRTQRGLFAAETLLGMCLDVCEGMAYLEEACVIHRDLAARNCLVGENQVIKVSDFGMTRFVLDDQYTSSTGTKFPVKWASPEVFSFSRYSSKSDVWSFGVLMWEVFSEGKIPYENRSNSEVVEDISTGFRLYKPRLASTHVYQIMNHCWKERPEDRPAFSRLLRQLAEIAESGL
# STK39 = STK39 (UniProt Q9UEW8)
# TGFBR2 = TGFBR2 (UniProt P37173)
# MAST1 = MAST1 (UniProt Q9Y2H9)
# ROCK2, sequence (O75116 whole entry, looked up): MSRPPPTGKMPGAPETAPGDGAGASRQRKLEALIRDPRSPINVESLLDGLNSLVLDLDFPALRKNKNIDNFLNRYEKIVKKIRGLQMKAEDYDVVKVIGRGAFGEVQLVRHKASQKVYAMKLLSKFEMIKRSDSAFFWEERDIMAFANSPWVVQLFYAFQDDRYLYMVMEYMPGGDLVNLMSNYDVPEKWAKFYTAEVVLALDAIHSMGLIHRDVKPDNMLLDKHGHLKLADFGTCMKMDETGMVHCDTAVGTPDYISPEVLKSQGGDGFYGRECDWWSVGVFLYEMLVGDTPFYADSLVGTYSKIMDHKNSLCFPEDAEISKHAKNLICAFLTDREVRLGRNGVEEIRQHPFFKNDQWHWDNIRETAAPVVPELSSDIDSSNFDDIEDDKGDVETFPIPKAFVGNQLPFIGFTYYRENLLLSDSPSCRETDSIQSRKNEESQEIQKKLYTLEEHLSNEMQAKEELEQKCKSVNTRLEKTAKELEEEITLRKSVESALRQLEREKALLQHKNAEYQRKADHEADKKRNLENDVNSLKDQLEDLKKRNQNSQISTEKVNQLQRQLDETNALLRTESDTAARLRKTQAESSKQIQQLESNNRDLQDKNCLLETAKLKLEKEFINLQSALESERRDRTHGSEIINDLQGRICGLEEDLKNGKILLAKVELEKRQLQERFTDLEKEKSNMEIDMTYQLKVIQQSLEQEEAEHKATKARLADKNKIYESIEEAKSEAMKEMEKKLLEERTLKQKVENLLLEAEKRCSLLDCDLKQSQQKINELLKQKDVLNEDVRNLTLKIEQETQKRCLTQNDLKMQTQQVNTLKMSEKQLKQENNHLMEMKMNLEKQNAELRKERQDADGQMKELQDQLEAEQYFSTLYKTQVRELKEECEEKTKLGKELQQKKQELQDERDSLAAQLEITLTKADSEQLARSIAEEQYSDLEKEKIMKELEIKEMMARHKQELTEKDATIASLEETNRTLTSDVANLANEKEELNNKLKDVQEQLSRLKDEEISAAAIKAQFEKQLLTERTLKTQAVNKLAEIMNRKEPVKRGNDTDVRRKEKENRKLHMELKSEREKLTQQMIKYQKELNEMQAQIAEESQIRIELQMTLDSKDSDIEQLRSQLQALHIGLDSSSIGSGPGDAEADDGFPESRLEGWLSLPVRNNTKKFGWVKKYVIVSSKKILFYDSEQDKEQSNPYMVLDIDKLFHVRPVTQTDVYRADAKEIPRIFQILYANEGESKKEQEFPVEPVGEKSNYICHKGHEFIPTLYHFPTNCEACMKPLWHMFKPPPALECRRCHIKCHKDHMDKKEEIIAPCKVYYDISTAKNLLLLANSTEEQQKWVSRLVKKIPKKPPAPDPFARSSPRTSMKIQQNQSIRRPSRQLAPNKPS
# UniProt Q15208, sequence (Q15208 whole entry, looked up): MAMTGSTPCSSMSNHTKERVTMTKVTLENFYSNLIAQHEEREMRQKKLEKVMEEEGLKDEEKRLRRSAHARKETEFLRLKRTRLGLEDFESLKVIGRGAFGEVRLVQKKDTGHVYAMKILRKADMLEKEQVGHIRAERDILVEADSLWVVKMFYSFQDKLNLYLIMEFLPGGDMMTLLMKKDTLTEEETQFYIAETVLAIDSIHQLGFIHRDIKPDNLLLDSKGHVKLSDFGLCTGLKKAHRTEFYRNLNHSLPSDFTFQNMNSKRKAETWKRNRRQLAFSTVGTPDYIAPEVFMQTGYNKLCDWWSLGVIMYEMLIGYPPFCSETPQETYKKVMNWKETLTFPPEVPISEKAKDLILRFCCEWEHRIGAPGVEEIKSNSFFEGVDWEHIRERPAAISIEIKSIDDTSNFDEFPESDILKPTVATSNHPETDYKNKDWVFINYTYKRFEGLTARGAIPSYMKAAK
# UniProt Q9H0K1, sequence (Q9H0K1 whole entry, looked up): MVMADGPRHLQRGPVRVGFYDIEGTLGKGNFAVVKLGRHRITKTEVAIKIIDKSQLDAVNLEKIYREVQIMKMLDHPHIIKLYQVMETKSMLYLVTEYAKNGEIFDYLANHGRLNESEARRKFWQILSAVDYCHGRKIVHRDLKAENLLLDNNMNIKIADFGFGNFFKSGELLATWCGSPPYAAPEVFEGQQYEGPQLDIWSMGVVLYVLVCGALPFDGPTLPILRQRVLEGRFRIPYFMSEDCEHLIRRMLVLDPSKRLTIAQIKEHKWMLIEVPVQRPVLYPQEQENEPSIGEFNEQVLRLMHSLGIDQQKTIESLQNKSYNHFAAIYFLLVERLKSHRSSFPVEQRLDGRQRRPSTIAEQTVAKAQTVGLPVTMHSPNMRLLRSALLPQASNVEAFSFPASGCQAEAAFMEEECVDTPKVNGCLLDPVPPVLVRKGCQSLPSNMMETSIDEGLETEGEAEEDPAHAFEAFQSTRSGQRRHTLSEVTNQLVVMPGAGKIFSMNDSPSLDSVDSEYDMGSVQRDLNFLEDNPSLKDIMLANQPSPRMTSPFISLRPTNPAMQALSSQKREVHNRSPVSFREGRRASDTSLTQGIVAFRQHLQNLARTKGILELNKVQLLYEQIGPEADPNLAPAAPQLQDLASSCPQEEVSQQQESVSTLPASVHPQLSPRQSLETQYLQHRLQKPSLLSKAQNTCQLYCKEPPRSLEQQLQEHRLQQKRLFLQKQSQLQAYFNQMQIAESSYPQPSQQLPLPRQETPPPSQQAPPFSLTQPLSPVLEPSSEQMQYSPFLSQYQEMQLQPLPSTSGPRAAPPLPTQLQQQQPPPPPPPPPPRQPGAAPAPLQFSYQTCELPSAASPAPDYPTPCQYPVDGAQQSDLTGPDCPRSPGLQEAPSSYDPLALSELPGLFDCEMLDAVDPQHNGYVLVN
# CIT, sequence (O14578 whole entry): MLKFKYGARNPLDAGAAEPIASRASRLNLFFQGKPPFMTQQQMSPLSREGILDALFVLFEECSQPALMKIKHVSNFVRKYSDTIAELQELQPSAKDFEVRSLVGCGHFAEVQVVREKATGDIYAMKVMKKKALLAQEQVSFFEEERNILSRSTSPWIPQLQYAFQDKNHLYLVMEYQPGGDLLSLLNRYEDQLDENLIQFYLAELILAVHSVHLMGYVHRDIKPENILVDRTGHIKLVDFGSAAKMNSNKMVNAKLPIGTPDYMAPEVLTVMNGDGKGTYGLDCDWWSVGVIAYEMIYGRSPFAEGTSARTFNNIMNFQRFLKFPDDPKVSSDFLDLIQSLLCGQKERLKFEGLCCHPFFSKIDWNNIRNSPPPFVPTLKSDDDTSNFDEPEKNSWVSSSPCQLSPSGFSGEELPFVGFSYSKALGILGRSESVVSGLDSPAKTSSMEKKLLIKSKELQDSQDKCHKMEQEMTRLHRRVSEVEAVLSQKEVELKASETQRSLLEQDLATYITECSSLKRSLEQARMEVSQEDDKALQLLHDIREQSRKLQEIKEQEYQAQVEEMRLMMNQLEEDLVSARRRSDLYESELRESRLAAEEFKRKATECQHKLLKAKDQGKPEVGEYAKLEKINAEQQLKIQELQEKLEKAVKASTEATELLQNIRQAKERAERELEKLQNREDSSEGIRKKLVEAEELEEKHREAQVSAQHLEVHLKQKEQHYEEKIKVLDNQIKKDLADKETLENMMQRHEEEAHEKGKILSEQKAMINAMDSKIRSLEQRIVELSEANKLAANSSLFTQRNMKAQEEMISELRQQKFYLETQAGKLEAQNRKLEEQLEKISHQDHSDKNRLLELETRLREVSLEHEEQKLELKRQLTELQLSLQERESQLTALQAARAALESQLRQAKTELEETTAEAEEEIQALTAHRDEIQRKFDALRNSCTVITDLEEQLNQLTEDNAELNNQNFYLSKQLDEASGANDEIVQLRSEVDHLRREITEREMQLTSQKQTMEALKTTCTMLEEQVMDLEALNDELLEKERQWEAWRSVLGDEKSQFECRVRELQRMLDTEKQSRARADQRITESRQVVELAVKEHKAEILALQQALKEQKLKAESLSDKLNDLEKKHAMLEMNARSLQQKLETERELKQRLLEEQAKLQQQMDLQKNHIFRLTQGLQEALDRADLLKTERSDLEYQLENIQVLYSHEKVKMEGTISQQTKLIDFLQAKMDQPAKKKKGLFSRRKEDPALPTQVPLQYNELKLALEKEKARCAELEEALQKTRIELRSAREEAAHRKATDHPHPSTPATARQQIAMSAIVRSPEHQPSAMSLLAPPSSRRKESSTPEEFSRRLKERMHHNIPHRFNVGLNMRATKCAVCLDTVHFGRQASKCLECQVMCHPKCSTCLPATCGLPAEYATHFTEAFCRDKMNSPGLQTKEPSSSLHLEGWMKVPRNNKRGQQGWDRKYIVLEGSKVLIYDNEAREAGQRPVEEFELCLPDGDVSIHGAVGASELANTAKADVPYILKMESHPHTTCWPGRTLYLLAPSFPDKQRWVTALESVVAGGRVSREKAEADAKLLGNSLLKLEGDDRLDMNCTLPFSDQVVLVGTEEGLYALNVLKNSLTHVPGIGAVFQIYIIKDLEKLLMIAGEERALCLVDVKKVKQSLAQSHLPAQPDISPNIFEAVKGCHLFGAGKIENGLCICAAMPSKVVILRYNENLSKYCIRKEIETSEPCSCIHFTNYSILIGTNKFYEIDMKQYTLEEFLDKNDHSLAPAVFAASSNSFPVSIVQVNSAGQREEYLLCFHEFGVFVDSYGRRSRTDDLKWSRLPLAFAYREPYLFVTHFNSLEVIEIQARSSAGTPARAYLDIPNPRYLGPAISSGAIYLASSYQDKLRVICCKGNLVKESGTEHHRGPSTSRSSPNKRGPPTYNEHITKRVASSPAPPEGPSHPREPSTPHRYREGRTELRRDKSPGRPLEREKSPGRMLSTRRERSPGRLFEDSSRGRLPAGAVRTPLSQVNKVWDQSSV
compound,measurement,setting,value
CCc1cnn2c(NCc3ccc[n+]([O-])c3)cc(N3CCCC[C@H]3CCO)nc12 [dinaciclib],pIC50,CIT,< 4.52
same,pIC50,UniProt Q9H0K1,< 4.52
same,pIC50,UniProt Q15208,< 4.52
same,pIC50,CDK10,7.86 ± 0.31
same,pIC50,NLK,< 4.52
same,pIC50,TESK1,< 4.52
same,pIC50,UniProt Q9UEE5,< 4.52
same,pIC50,RPS6KA4,< 4.52
same,pIC50,UniProt O94804,< 4.52
same,pIC50,STK35,< 4.52
same,pIC50,UniProt Q92918,< 4.52
same,pIC50,HIPK3,< 4.52
same,pIC50,ROCK2,< 4.52
same,pIC50,TRRAP,< 4.52
same,pIC50,MAPK11,< 4.52
same,pIC50,CAMK4,< 4.52
same,pIC50,PLK1,< 4.52
same,pIC50,ITK,< 4.52
same,pIC50,STK39,5.015 ± 0.021
same,pIC50,TGFBR2,< 4.52
same,pIC50,MAST1,< 4.52
